Structures are written as SMILES.

One data set in a line: Murine serum stability assay. It is filed as in vitro ADME, mouse (CD-1). Particulars: male, CD-1, mouse, mouse serum, male CD-1 mouse serum, 37° C.; read-out: Murine serum stability assay, T1/2. How it is done:
Serum was drawn from male CD-1 mice by Pharmidex. Lyophilized peptides were solubilized in DMSO and then further diluted into male mouse (CD-1) serum at 37° C. in duplicates. The reaction was incubated at 37° C. and samples extracted at 6 time points: 0, 0.16, 0.5, 1, 3, and 6 hrs. Acetonitrile (ACN) with internal standard (tolbutamide) was added to stop the incubation. Samples were centrifuged, and the supernatant was analyzed by HPLC-MS/MS for the parent compound.
As to `CCCC[C@@H]1NC(=O)[C@@H](NC(=O)[C@H](CCC(N)=O)NC(=O)[C@H](C)NC(C)=O)CSSC[C@@H](C(=O)N[C@@H](CCCNC(=N)N)C(=O)N[C@@H](CCC(N)=O)C(=O)N[C@H](C(=O)N[C@@H](CC(C)(C)C)C(=O)O)C(C)(C)C)NC(=O)[C@H](C)NC(=O)[C@H](CCCNC(=N)N)NC(=O)[C@H](CC(N)=O)NC(=O)[C@H](CCCNC(=N)N)NC(=O)CNC1=O` [Arb_cyclic_C5], the half-life is 46.1 min.
The same measure, in the same setting: the value for `CC(=O)N[C@@H](Cc1c[nH]cn1)C(=O)N[C@@H](CC(N)=O)C(=O)N[C@@H](Cc1ccccc1)C(=O)N[C@@H](Cc1ccc(O)cc1)C(=O)N[C@H]1CSSC[C@@H](C(=O)N[C@@H](CCC(N)=O)C(=O)N[C@@H](CCCNC(=N)N)C(=O)N[C@@H](CCC(N)=O)C(=O)N[C@H](C(=O)N[C@@H](CC(C)(C)C)C(=O)O)C(C)(C)C)NC(=O)[C@H](Cc2c[nH]cn2)NC(=O)[C@H](CCCCN)NC(=O)[C@H](CCCNC(=N)N)NC1=O` [Arb_cyclic_C22] was 58.8 min; that for `CCCC[C@H](NC(=O)[C@@H]1CSSC[C@H](NC(=O)[C@H](Cc2c[nH]cn2)NC(=O)[C@H](Cc2ccccc2)NC(=O)[C@H](CC(N)=O)NC(=O)[C@H](CCCNC(=N)N)NC(C)=O)C(=O)N[C@@H](CCCNC(=N)N)C(=O)N[C@@H](C)C(=O)N[C@@H](CCC(N)=O)C(=O)N1)C(=O)N[C@@H](CCCNC(=N)N)C(=O)N[C@@H](CCC(N)=O)C(=O)N[C@H](C(=O)N[C@@H](CC(C)(C)C)C(=O)O)C(C)(C)C` [Arb_cyclic_D21] was 13.5 min; that for `CC(=O)N[C@@H](CCC(=O)O)C(=O)N[C@@H](Cc1c[nH]c2ccccc12)C(=O)N[C@H]1CSSC[C@@H](C(=O)N[C@@H](CCCNC(=N)N)C(=O)N[C@@H](CCC(N)=O)C(=O)N[C@H](C(=O)N[C@@H](CC(C)(C)C)C(=O)O)C(C)(C)C)NC(=O)[C@H]([C@@H](C)O)NC(=O)[C@@H]2CCCN2C(=O)[C@H](Cc2c[nH]cn2)NC(=O)[C@H](CC(N)=O)NC(=O)[C@H](Cc2c[nH]cn2)NC(=O)[C@H](CC(C)C)NC(=O)CNC1=O` [Arb_cyclic_F3] was 173 min.
Same read-out and setting: the value for `CC(=O)N[C@@H](CCCNC(=N)N)C(=O)N[C@@H](CC(=O)O)C(=O)N[C@H]1CSSC[C@@H](C(=O)N[C@@H](CCCNC(=N)N)C(=O)N[C@@H](CCC(N)=O)C(=O)N[C@H](C(=O)N[C@@H](CC(C)(C)C)C(=O)O)C(C)(C)C)NC(=O)[C@@H]2CCCN2C(=O)[C@@H]2CCCN2C(=O)[C@H](C)NC(=O)[C@H](CCCNC(=N)N)NC(=O)[C@H](CC(C)C)NC(=O)[C@H](CO)NC(=O)[C@H](C)NC1=O` [Arb_cyclic_G2] was 20.8 min.
Still for that read-out and setting: for `CC(=O)N[C@@H](CCCNC(=N)N)C(=O)N[C@@H](CC(=O)O)C(=O)N[C@H]1CSSC[C@@H](C(=O)N[C@@H](CCCNC(=N)N)C(=O)N[C@@H](CCC(N)=O)C(=O)N[C@H](C(=O)N[C@@H](CC(C)(C)C)C(=O)O)C(C)(C)C)NC(=O)[C@H](C(C)C)NC(=O)[C@H](CCCCN)NC(=O)[C@H](C)NC(=O)[C@H](CCCNC(=N)N)NC(=O)[C@H](CC(C)C)NC(=O)[C@H](CO)NC(=O)[C@@H]2CCCN2C1=O` [Arb_cyclic_G4] the value was 38.5 min; for `CCCC[C@@H]1NC(=O)[C@H](CCCNC(=N)N)NC(=O)[C@H](CC(C)C)NC(=O)[C@H](CO)NC(=O)[C@H](C(C)C)NC(=O)[C@@H](NC(=O)[C@H](CC(=O)O)NC(=O)[C@H](CCCNC(=N)N)NC(C)=O)CSSC[C@@H](C(=O)N[C@@H](CCCNC(=N)N)C(=O)N[C@@H](CCC(N)=O)C(=O)N[C@H](C(=O)N[C@@H](CC(C)(C)C)C(=O)O)C(C)(C)C)NC(=O)[C@H](C(C)C)NC(=O)[C@H](Cc2c[nH]cn2)NC1=O` [Arb_cyclic_G5, RDCVSLR(Nle)HVCRQ(B13)(F02)], 95.2 min.
As to `CC[C@H](C)[C@@H]1NC(=O)[C@@H](NC(=O)CNC(=O)[C@H](CCCNC(=N)N)NC(C)=O)CSSC[C@@H](C(=O)N[C@@H](CCCNC(=N)N)C(=O)N[C@@H](CCC(N)=O)C(=O)N[C@H](C(=O)N[C@@H](CC(C)(C)C)C(=O)O)C(C)(C)C)NC(=O)[C@H](C)NC(=O)[C@H](CC(=O)O)NC(=O)[C@H](CCC(N)=O)NC(=O)[C@H](CCCNC(=N)N)NC(=O)[C@H](CCCNC(=N)N)NC(=O)[C@@H]2CCCN2C1=O` [Arb_cyclic_G7], the half-life was found to be 9.26 min.
On the same count and under the same terms, the value for `CCCC[C@H](NC(=O)[C@H](CCCNC(=N)N)NC(C)=O)C(=O)N[C@H]1CSSC[C@@H](C(=O)N[C@@H](CCCNC(=N)N)C(=O)N[C@@H](CCC(N)=O)C(=O)N[C@H](C(=O)N[C@@H](CC(C)(C)C)C(=O)O)C(C)(C)C)NC(=O)[C@H](C)NC(=O)[C@@H]2CCCN2C(=O)[C@H](CO)NC(=O)[C@H](CCCNC(=N)N)NC(=O)[C@H]([C@@H](C)CC)NC(=O)[C@@H]2CCCN2C(=O)CNC1=O` [Arb_cyclic_G10] was 112 min; that for `CCCC[C@@H]1NC(=O)[C@H](CCCNC(=N)N)NC(=O)[C@H](Cc2c[nH]cn2)NC(=O)[C@H]([C@@H](C)O)NC(=O)[C@H]([C@@H](C)O)NC(=O)[C@@H](NC(=O)[C@H](CO)NC(=O)[C@H](CCCNC(=N)N)NC(C)=O)CSSC[C@@H](C(=O)N[C@@H](CCCNC(=N)N)C(=O)N[C@@H](CCC(N)=O)C(=O)N[C@H](C(=O)N[C@@H](CC(C)(C)C)C(=O)O)C(C)(C)C)NC(=O)[C@H]([C@@H](C)O)NC(=O)[C@H](C)NC1=O` [Arb_cyclic_G14, RSCTTHR(Nle)ATCRQ(B13)(F02)] was 50.9 min; that for `CCCC[C@@H]1NC(=O)[C@H](CCCNC(=N)N)NC(=O)[C@H](CCC(N)=O)NC(=O)[C@H](CC(N)=O)NC(=O)[C@H](CCC(=O)O)NC(=O)[C@@H](NC(=O)[C@H](Cc2c[nH]c3ccccc23)NC(=O)[C@H](CCCNC(=N)N)NC(C)=O)CSSC[C@@H](C(=O)N[C@@H](CCCNC(=N)N)C(=O)N[C@@H](CCC(N)=O)C(=O)N[C@H](C(=O)N[C@@H](CC(C)(C)C)C(=O)O)C(C)(C)C)NC(=O)[C@H](C(C)C)NC(=O)[C@H]([C@@H](C)O)NC1=O` [Arb_cyclic_G22, RWCENQR(Nle)TVCRQ(B13)(F02)] was 49.2 min.
For the compound `CCCC[C@@H]1NC(=O)[C@H](CCCNC(=N)N)NC(=O)[C@H](CCCNC(=N)N)NC(=O)[C@H](CC(N)=O)NC(=O)[C@H](CCC(=O)O)NC(=O)[C@@H](NC(=O)[C@H](Cc2c[nH]c3ccccc23)NC(=O)[C@H](CCCNC(=N)N)NC(C)=O)CSSC[C@@H](C(=O)N[C@@H](CCCNC(=N)N)C(=O)N[C@@H](CCC(N)=O)C(=O)N[C@H](C(=O)N[C@@H](CC(C)(C)C)C(=O)O)C(C)(C)C)NC(=O)[C@H]([C@@H](C)O)NC(=O)[C@H](Cc2ccccc2)NC1=O` [Arb_cyclic_G23, RWCENRR(Nle)FTCRQ(B13)(F02)], the half-life was determined as 38.1 min.

The data set is the same for the next values; noted with them: male, CD-1, mouse, serum, 37° C., read-out: Murine serum stability assay, T1/2.
In the case of `CCCC[C@@H]1NC(=O)[C@H](CCCCN)NC(=O)[C@H](CCCNC(=N)N)NC(=O)[C@@H](NC(=O)[C@H](Cc2ccccc2)NC(=O)[C@@H](NC(=O)[C@H](CC(N)=O)NC(=O)[C@H](CCCNC(=N)N)NC(C)=O)[C@@H](C)CC)CSSC[C@@H](C(=O)N[C@@H](CCC(=O)O)C(=O)N[C@@H](CCCNC(=N)N)C(=O)N[C@@H](CCC(N)=O)C(=O)N[C@H](C(=O)N[C@@H](CC(C)(C)C)C(=O)O)C(C)(C)C)NC1=O` [Arb_cyclic_D24, RNIFCRK(Nle)CERQ(B13)(F02)], the half-life is 80.7 min.
Turning to `CC(=O)N[C@@H](CCCNC(=N)N)C(=O)N[C@H](C(=O)N[C@H]1CSSC[C@@H](C(=O)N[C@@H](CCCNC(=N)N)C(=O)N[C@@H](CCC(N)=O)C(=O)N[C@H](C(=O)N[C@@H](CC(C)(C)C)C(=O)O)C(C)(C)C)NC(=O)[C@H](C)NC(=O)[C@@H]2CCCN2C(=O)[C@H](CC(N)=O)NC(=O)[C@H](CCCNC(=N)N)NC(=O)[C@H](CC(C)C)NC(=O)[C@H](Cc2c[nH]cn2)NC(=O)[C@H](CC(N)=O)NC1=O)[C@@H](C)O` [Arb_cyclic_G15], the half-life stood at 19.3 min.
Regarding `CCCC[C@@H]1NC(=O)[C@H](CCCNC(=N)N)NC(=O)[C@H](Cc2c[nH]cn2)NC(=O)[C@H](CC(N)=O)NC(=O)[C@H](C)NC(=O)[C@@H](NC(=O)[C@@H](NC(=O)[C@H](CCCNC(=N)N)NC(C)=O)C(C)C)CSSC[C@@H](C(=O)N[C@@H](CCCNC(=N)N)C(=O)N[C@@H](CCC(N)=O)C(=O)N[C@H](C(=O)N[C@@H](CC(C)(C)C)C(=O)O)C(C)(C)C)NC(=O)[C@H]([C@@H](C)O)NC(=O)[C@H](CC(N)=O)NC1=O` [Arb_cyclic_G16, RVCANHR(Nle)NTCRQ(B13)(F02)], the half-life was found to be 11.2 min.
